Results published in patent US10174038B2, “Compounds and methods for antiviral treatment” (Gilead Sciences, Inc., priority 2012, dated 2019).

System: RSV strain A2
Experiment: RSV antiviral activity, in vitro cytoprotection assay in Hep2 cells
Type: cell-based, Respiratory Syncytial Virus (RSV)
Details: human respiratory syncytial virus, HEp-2; 0.5 μM compound; RSV-induced cytopathic effect in Hep2 cells; % inhibition calculated from fitted 4-parameter dose response curve, normalized to 0% and 100%; read-out: Percent inhibition at 0.5 μM
Description: Antiviral activity against RSV was determined using an in vitro cytoprotection assay in Hep2 cells. […] The method used was similar to methods previously described in published literature (Chapman et al., Antimicrob Agents Chemother. 2007, 51(9):3346-53.)
Hep2 cells were obtained from ATCC (Manassas, Va.) and maintained in MEM media supplemented with 10% fetal bovine serum and penicillin/streptomycin. Cells were passaged twice a week and kept at subconfluent stage. Commercial stock of RSV strain A2 (Advanced Biotechnologies, Columbia, Md.) was titered before compound testing to determine the appropriate dilution of the virus stock that generated desirable cytopathic effect in Hep2 cells.
For antiviral tests, Hep2 cells were seeded into 96-well plates 24 hours before the assay at a density of 3,000 cells/well. On a separate 96 well plate, compounds to be tested were serially diluted in cell culture media. Eight concentrations in 3-fold serial dilution increments were prepared for each tested compound and 100 uL/well of each dilution was transferred in duplicate onto plates with seeded Hep2 cells. Subsequently, appropriate dilution of virus stock previously determined by titration was prepared in cell culture media and 100 uL/well was added to test plates containing cells and serially diluted compounds. Each plate included three wells of infected untreated cells and three wells of uninfected cells that served as 0% and 100% virus inhibition control, respectively. Following the infection with RSV, testing plates were incubated for 4 days in a tissue culture incubator. After the incubation, RSV-induced cytopathic effect was determined using a Cell TiterGlo reagent (Promega, Madison, Wis.) followed by a luminescence read-out. The percentage inhibition was calculated for each tested concentration relative to the 0% and 100% inhibition controls and the EC50 value for each compound was determined by non-linear regression as a concentration inhibiting the RSV-induced cytopathic effect by 50%. Ribavirin (purchased from Sigma, St. Louis, Mo.) was used as a positive control for antiviral activity.
Compounds were also tested for antiviral activity against RSV in Hep2 cells using a 384 well format. Compounds were diluted in DMSO using a 10-step serial dilution in 3-fold increments via automation in 4 adjacent replicates each. Eight compounds were tested per dilution plate. 0.4 uL of diluted compounds were then stamped via Biomek into 384-well plates (Nunc 142761 or 164730 w/lid 264616) containing 20 μL of media (Mediatech Inc. MEM supplemented with Glutamine, 10% FBS and Pen/Strep). DMSO and a suitable positive control compound, such as 80 μM GS-329467 or 10 μM 427346 was used for the 100% and 0% cell killing controls, respectively.
Hep2 cells (1.0×10^5 cells/ml) were prepared as above in batch to at least 40 mls excess of the number of sample plates (8 mls cell mix per plate) and infected with vendor supplied (ABI) RSV strain A2 to arrive at an MOI of 1:1000 (virus:cell #) or 1:3000 (vol virus:cell vol). Immediately after addition of virus, the RSV infected Hep2 cell suspension was added to each stamped 384-well plate at 20 μl per well using a uFlow dispenser, giving a final volume of 40 μL/well, each with 2000 infected cells. The plates were then incubated for 5 days at 37° C. and 5% CO2. Following incubation, the plates were equilibrated to room temperature in a biosafety cabinet hood for 1.5 hrs and 40 μL of Cell-Titer Glo viability reagent (Promega) was added to each well via uFlow. Following a 10-20 minute incubation, the plates were read using an EnVision or Victor Luminescence plate reader (Perkin-Elmer). The data was then uploaded and analyzed on the Bioinformatics portal under the RSV Cell Infectivity and 8-plate EC50-Hep2-384 or 8-plate EC50-Hep2-Envision protocols. […]

Row | Structure (SMILES) | inhibition at 0.5 µM [%]
1 | CN[C@@H]1CCN(c2cc(C)n3nc([C@@H]4CCCCN4C(=O)c4cc(Cl)ccc4NS(C)(=O)=O)cc3n2)C1 [Compound 84] | 95
2 | CS(=O)(=O)Nc1ccc(Cl)cc1C(=O)N1CCCC[C@H]1c1cc2nc(C3CC3)ccn2n1 [Compound 85] | 86
3 | CC(=O)Nc1ccc(C)cc1C(=O)N1CCCC[C@H]1c1cc2nc(N3CCC[C@H](N)C3)c(C)cn2n1 [Compound 86] | 84
4 | CC(=O)Nc1ccc(C)cc1C(=O)N1CCCC[C@H]1c1cc2nc(N3CC(NC(=O)OC(C)(C)C)C3)c(C)cn2n1 [Compound 87] | 89
5 | Cc1cn2nc([C@@H]3CCCCN3C(=O)c3cc(Cl)ccc3NS(C)(=O)=O)cc2nc1N1CCC[C@H](N)C1 [Compound 88] | 89
6 | CS(=O)(=O)Nc1ccc(Cl)cc1C(=O)N1CCCC[C@H]1c1cc2nc(N3CC(CO)C3)cc(N3CCOCC3)n2n1 [Compound 89] | 90
7 | CS(=O)(=O)Nc1ccc(Cl)cc1C(=O)N1CCCC[C@H]1c1cc2nc(N3CCCC3)cc(N3CCOCC3)n2n1 [Compound 90] | 100
8 | CNc1cc(N2CCOCC2)n2nc([C@@H]3CCCCN3C(=O)c3cc(Cl)ccc3NS(C)(=O)=O)cc2n1 [Compound 91] | 91
9 | CN(C)c1cc(N2CCOCC2)n2nc([C@@H]3CCCCN3C(=O)c3cc(Cl)ccc3NS(C)(=O)=O)cc2n1 [Compound 92] | 98
10 | CS(=O)(=O)Nc1ccc(Cl)cc1C(=O)N1CCCC[C@H]1c1cc2nc(N3CC[C@@H](F)C3)cc(N3CCOCC3)n2n1 [Compound 93] | 56
11 | CNC1CCN(c2cc(N3CCOCC3)n3nc([C@@H]4CCCCN4C(=O)c4cc(Cl)ccc4NS(C)(=O)=O)cc3n2)C1 (stereo partly shown) [Compound 94] | 89
12 | CS(=O)(=O)Nc1ccc(Cl)cc1C(=O)N1CCCC[C@H]1c1cc2nc(N3CC[C@@H](N)C3)cc(N3CCOCC3)n2n1 [Compound 95] | 99
13 | CS(=O)(=O)Nc1ccc(Cl)cc1C(=O)N1CCCC[C@H]1c1cc2nc(N3CC[C@H](O)C3)cc(N3CCOCC3)n2n1 [Compound 96] | 90
14 | Cc1cn2nc([C@@H]3CCCCN3C(=O)c3cc(Cl)ccc3NS(C)(=O)=O)cc2nc1N1CC(C#N)C1 [Compound 97] | 97
15 | Cc1cn2nc([C@@H]3CCCCN3C(=O)c3cc(Cl)ccc3NS(C)(=O)=O)cc2nc1N1CC(F)(F)C1 [Compound 98] | 100
16 | COC(=O)C1CCN1c1nc2cc([C@@H]3CCCCN3C(=O)c3cc(Cl)ccc3NS(C)(=O)=O)nn2cc1C (stereo partly shown) [Compound 99] | 100
17 | Cc1cn2nc([C@@H]3CCCCN3C(=O)C(NS(C)(=O)=O)c3ccccc3F)cc2nc1N1CC[C@H](N)C1 (stereo partly shown) [Compound 100] | 100
18 | Cc1cn2nc([C@@H]3CCCCN3C(=O)C(NS(C)(=O)=O)c3ccccc3)cc2nc1N1CC[C@H](N)C1 (stereo partly shown) [Compound 101] | 100
19 | COC(=O)N[C@H](C(=O)N1CCCC[C@H]1c1cc2nc(N3CC[C@H](N)C3)c(C)cn2n1)C1CC1 [Compound 102] | 99

Row | Structure (SMILES) | inhibition at 0.5 µM [%]
20 | Cc1ccc(NS(C)(=O)=O)c(C(=O)N2CCCC[C@H]2c2cc3nc(C)nc(C)n3n2)c1 [Compound 103] | 27
21 | Cc1cc(C)n2cc([C@@H]3CCCCN3C(=O)c3cc(Cl)ccc3NS(C)(=O)=O)nc2c1 [Compound 104] | 3
22 | Cc1ccc(NS(C)(=O)=O)c(C(=O)N2CCCC[C@H]2c2cc3cc(C)cc(C)n3n2)c1 [Compound 105] | 96
23 | CS(=O)(=O)Nc1ccc(Cl)cc1C(=O)N1CCCC[C@H]1c1cn2nc(N3CCC3)ccc2n1 [Compound 106] | 100
24 | Cc1cc2nc([C@@H]3CCCCN3C(=O)c3cc(Cl)ccc3NS(C)(=O)=O)cn2nc1N1CC[C@H](N)C1 [Compound 107] | 100
25 | Cc1cc(N2CC[C@H](N)C2)nn2cc([C@@H]3CCCCN3C(=O)c3cc(Cl)ccc3NS(C)(=O)=O)nc12 [Compound 108] | 100
26 | Cc1ccc(NS(C)(=O)=O)c(C(=O)N2CCCC[C@H]2c2nc3cc(C)cc(C)n3n2)c1 [Compound 110] | 60
27 | CS(=O)(=O)Nc1ccc(Cl)cc1C(=O)N1CCCC[C@H]1c1cc2ccc(N3CCC3)nn2c1 [Compound 111] | 56
28 | Cc1ccc(NS(C)(=O)=O)c(C(=O)N2CCCC[C@H]2c2nc3c(C)cc(C)nc3[nH]2)c1 [Compound 112] | 5
29 | Cc1cc(C)n2nc(C3CCCCN3C(=O)c3cc(Cl)ccc3NS(C)(=O)=O)nc2n1 (stereo not shown) [Compound 113] | 16
30 | Cc1cc(NS(C)(=O)=O)c(C(=O)N2CCCC[C@H]2c2cn3nc(N4CC[C@H](N)C4)c(C)cc3n2)s1 [Compound 114] | 100
31 | Cc1ccc(NS(C)(=O)=O)c(C(=O)N2CCCC[C@H]2c2cn3nc(N4CC[C@H](N)C4)c(C)cc3n2)c1 [Compound 115] | 100
32 | Cc1cc2nc([C@@H]3CCCCN3C(=O)C(NS(C)(=O)=O)c3ccccc3Br)cn2nc1N1CC[C@H](N)C1 (stereo partly shown) [Compound 116] | 100
33 | CS(=O)(=O)Nc1ccc(Cl)cc1C(=O)N1CCCC[C@H]1c1cn2nc(N3CC[C@H](N)C3)ccc2n1 [Compound 117] | 100
34 | CS(=O)(=O)Nc1ccc(Cl)cc1C(=O)N1CCCC[C@H]1c1cn2nc(N3C[C@@H](C#N)[C@@H](O)C3)ccc2n1 [Compound 118] | 100
35 | Cc1cccc(C(=O)N2CCCC[C@H]2c2cn3nc(N4CC[C@H](N)C4)ccc3n2)n1 [Compound 119] | 83
36 | CS(=O)(=O)Nc1ccc(Cl)cc1C(=O)N1CCCC[C@H]1c1cn2nc(N3CC(O)C3)ccc2n1 [Compound 120] | 100
37 | Cc1ccc(Cl)cc1C(=O)N1CCCC[C@H]1c1cn2nc(N3CC[C@H](N)C3)ccc2n1 [Compound 121] | 100
